The test system of experiment [1] is HSV-1. The experiment in a line: HSV Antiviral (ELISA) Assay. The format is cell-based, herpes simplex virus type 1. Particulars: Vero cells; for IC50: Human alphaherpesvirus 1, read-out: IC50 (ug/ml) HSV. As for the experimental part: Vero cells (ATCC #CCL-81) are plated on 96-well tissue culture plates at 3.5×10^4 cells per 100 μl tissue culture DMEM (Dulbecco's modified Eagle media) supplemented with 2% fetal bovine serum (FBS) in each well. After overnight incubation @37° C. (in 5% CO2) and 30 minutes prior to infection with HSV-1 (multiplicity of infection equal to 0.006), cells are either untreated, or treated with test compound (multiple concentrations) or reference standard drug control. After approximately 24 hours post-infection incubation @37° C. (in 5% CO2), cells are fixed for ELISA assay. The primary antibody is murine anti-HSV glycoprotein D monoclonal primary antibody and the secondary antibody is goat anti-mouse IgG linked to β-galactosidase. Thus the extent of viral replication is determined by assessing β-galactosidase activity by quantifying the generation of the 4-methyl umbeliiferone fluorescent cleavage product after addition of the methyl umbelliferyl-β-D-galactoside (Sigma #M1633) substrate on a microfluorimeter (365 nm for excitation and 450 nm for emission). Antiviral activity (IC50) of the test compound is determined by comparing the flourescence obtained in absence of compound to that obtained in the presence of compound.
On the technique in general: In an ELISA, binding on a coated surface is turned into a signal by an enzyme label.

The test system of experiment [2] is VZV strain Ellen. The experiment can be described thus: VZV Antiviral (ELISA) Assay. In kind it is cell-based, varicella-zoster virus. The settings on record: human foreskin fibroblast cells; for inhibition at 10 µg/mL: Human alphaherpesvirus 3, read-out: % inhibition 10 ug/ml VZV; for inhibition at 10 µg/mL / % inhibition 10 ug/ml VZV: 10 ug/ml; for IC50: Human alphaherpesvirus 3, read-out: IC50 (ug/ml) VZV. Here is the method:
For the generation of stock VZV to be used in the assay, VZV strain Ellen (ATCC #VR-1367) is used to infect human foreskin fibroblast (HFF) cells at low multiplicity (less than 0.1) and incubated overnight at 37° C. in 5% CO2. After the overnight incubation, the mixture of uninfected and VZV-infected HFF infected cells are then harvested and added to each well of 96-well plates (3.5×10^4 cells in 100 μl DMEM supplemented with 2% FBS) which contain test compound or the reference standard drug control (in 100 μl DMEM supplemented with 2% FBS per well). These cells are incubated for three days at 37° C. in 5% CO2, then fixed for ELISA assay. The primary antibody is murine anti-VZV glycoprotein II monoclonal antibody (Applied Biosystems, Inc. #13-145-100) and the secondary antibody is goat anti-mouse IgG linked to β-galactosidase. Thus the extent of viral replication is determined by assessing β-galactosidase activity by quantifying the generation of the 4-methyl umbelliferone fluorescent cleavage product after addition of the methyl umbelliferyl-β-D-galactoside (Sigma #M1633) substrate on a microfluorimeter (365 nm for excitation and 450 nm for emission). Antiviral activity (IC50) of the test compound is determined by comparing the flourescence obtained in absence of compound to that obtained in the presence of compound.

Experiment [3] concerns HCMV wild-type. The experiment can be described thus: HCMV yield assay. In kind it is cell-based, human cytomegalovirus. The settings on record: human foreskin fibroblasts; for IC50: Human betaherpesvirus 5, Fibroblast, read-out: IC50 (ug/ml) HCMV. As for the experimental part:
Yield assay. Monolayer cultures of human foreskin fibroblasts are infected with HCMV wild-type, typically at a multiplicity of infection equal to 0.2, in the presence of inhibitor compound (varying concentrations). At three days post-infection, total virus produced in these cultures (i.e. virus yield) is assessed by harvesting and titering the virus in 12-well plates of cultured human foreskin fibroblasts (done in the absence of inhibitor). Plaques are quantified at 2 weeks post-infection. An inhibitor of HCMV is identified by the reduction in titer of virus yield in the presence, compared to the titer in the absence of compound. In this assay, the relative anti-HCMV activity of an inhibitor is typically determined by calculating the IC50 or IC90 value, that is, the amount of compound required to reduce the virus yield by 50% or 90%, respectively. Table I describes IC50 data for compounds tested against HCMV.

Values after ≈ are worked out from the molar mass of the structure shown. A value given as a limit tells only on which side of the number the result lay.

As for `COc1cc(OC)c(NC(=S)Nc2cc(OC)c(NC(=O)c3ccco3)cc2C)cc1Cl` [Example 287, Furan-2-carboxylic acid {4-[3-(5-chloro-2,4-dimethoxy-phenyl)-thioureido]-2-methoxy-5-methyl-phenyl}-amide], the IC50 was 8 µg/mL (≈ 16.8 µM) in experiment [1], more than 10 µg/mL in experiment [2] and more than 50 µg/mL in experiment [3]. Further, the inhibition at 10 µg/mL in experiment [2] worked out at 5%.
Taken in the same sequence, the figures for `COc1cc(OC)c(NC(=S)Nc2ccc(NC(=O)c3ccco3)c(Cl)c2)cc1Cl` [Example 307, Furan-2-carboxylic acid {2-chloro-4-[3-(5-chloro-2,4-dimethoxy-phenyl)-thioureido]-phenyl}-amide] were more than 10 µg/mL, more than 10 µg/mL, 5 µg/mL (≈ 10.7 µM) and 30%.
Take “5-[3-(5-Chloro-2,4-dimethoxy-phenyl)-thioureido]-2-[(furan-2-carbonyl)-amino]-benzoic acid [Example 339]”: the “IC50 (ug/ml) HSV” value in experiment [1] was more than 50 µg/mL. Further, in experiment [2], the “% inhibition 10 ug/ml VZV” value is 11% and the “IC50 (ug/ml) VZV” value is more than 10 µg/mL. In experiment [3], the “IC50 (ug/ml) HCMV” value amounted to 50 µg/mL.
`COc1cc(OC)c(NC(=S)Nc2ccc(NC(=O)c3ccco3)c(C)c2)cc1Cl` [Example 311, Furan-2-carboxylic acid {4-[3-(5-chloro-2,4-dimethoxy-phenyl)-thioureido]-2-methyl-phenyl}-amide]: the IC50 in experiment [1] was 12 µg/mL (≈ 26.9 µM); in experiment [2], more than 10 µg/mL; in experiment [3], 6 µg/mL (≈ 13.5 µM). Also, in experiment [2], the inhibition at 10 µg/mL stood at 13%.
Regarding `COc1cc(OC)c(NC(=S)Nc2cc(C)c(NC(=O)c3ccco3)cc2Cl)cc1Cl` [Example 328, Furan-2-carboxylic acid {5-chloro-4[3-(5-chloro-2,4-dimethoxy-phenyl)-thioureido]-2-methyl-phenyl}-amide], the IC50 in experiment [1], in experiment [2] and in experiment [3] was more than 10 µg/mL each time. Besides, the inhibition at 10 µg/mL in experiment [2] is 44%.
Consider `COc1cc(OC)c(NC(=S)Nc2ccc(NC(=O)c3ccco3)c(C(=O)Nc3ccccc3)c2)cc1Cl` [Example 302, Furan-2-carboxylic acid {4-[3-(5-chloro-2,4-dimethoxy-phenyl)-thioureido]-2-phenylcarbamoyl-phenyl}-amide], for which the IC50 is 10 µg/mL (≈ 18.1 µM) in experiment [1], more than 10 µg/mL in experiment [2] and more than 10 µg/mL in experiment [3]. The inhibition at 10 µg/mL in experiment [2] is 5%.
In the case of `COc1cc(OC)c(NC(=S)Nc2ccc(NC(=O)c3ccco3)cc2Cl)cc1Cl` [Example 356, Furan-2-carboxylic acid {3-chloro-4-[3-(5-chloro-2,4-dimethoxy-phenyl)thioureido]-phenyl}-amide], the values for the IC50 in experiment [1], in experiment [2] and in experiment [3] were 0.5 µg/mL (≈ 1.07 µM), 1.9 µg/mL (≈ 4.07 µM) and 0.4 µg/mL (≈ 0.858 µM), respectively. Further, in experiment [2], the inhibition at 10 µg/mL turned out to be 72%.
The like results for `COc1cc(OC)c(NC(=S)Nc2ccc(NC(=O)c3ccco3)c(C(F)(F)F)c2)cc1Cl` [Example 308, Furan-2-carboxylic acid {4-[3-(5-chloro-2,4-dimethoxy-phenyl)-thioureido]-2-trifluoromethyl-phenyl}-amide] were, in that order, 10 µg/mL (≈ 20 µM), 4 µg/mL (≈ 8 µM), 10 µg/mL (≈ 20 µM) and 100%.
In the case of `COc1cc(OC)c(NC(=S)Nc2ccc(NC(=O)c3ccco3)cc2OC)cc1Cl` [Example 390, Furan-2-carboxylic acid {4-[3-(5-chloro-2,4-dimethoxy-phenyl)-thioureido]-3-methoxy-phenyl}-amide], the values for the IC50 in experiment [1], in experiment [2] and in experiment [3] were 0.5 µg/mL (≈ 1.08 µM), more than 10 µg/mL and more than 10 µg/mL, respectively. The inhibition at 10 µg/mL in experiment [2] is 61%.
With `COc1cc(OC)c(NC(=S)Nc2cc(O)c(NC(=O)c3ccco3)cc2Cl)cc1Cl` [Example 320, Furan-2-carboxylic acid {5-chloro-4-[3-(5-chloro-2,4-dimethoxy-phenyl)-thioureido]-2-hydroxy-phenyl}-amide], the IC50 in experiment [1] was 8 µg/mL (≈ 16.6 µM); in experiment [2], more than 10 µg/mL; in experiment [3] it was 8 µg/mL (≈ 16.6 µM). Also, the inhibition at 10 µg/mL in experiment [2] amounted to 50%.
Turning to `COc1cc(OC)c(NC(=S)Nc2ccc(NC(=O)c3ccco3)c3ccccc23)cc1Cl` [Example 324, Furan-2-carboxylic acid {4-[3-(5-chloro-2,4-dimethoxy-phenyl)-thioureido]-naphthalen-1-yl}-amide], the IC50 was 4 µg/mL (≈ 8.3 µM) in experiment [1], more than 10 µg/mL in experiment [2] and 8 µg/mL (≈ 16.6 µM) in experiment [3]. For the same compound, the inhibition at 10 µg/mL in experiment [2] is 24%.
`COc1cc(OC)c(NC(=S)Nc2ccc(NC(=O)c3ccco3)cc2C(F)(F)F)cc1Cl` [Example 858, Furan-2-carboxylic acid {4-[3-(5-chloro-2,4-dimethoxy-phenyl)-thioureido]-3-trifluoromethyl-phenyl}-amide]: the IC50 in experiment [1] is 2.5 µg/mL (≈ 5 µM); in experiment [2], more than 10 µg/mL; in experiment [3], 2 µg/mL (≈ 4 µM). In addition, in experiment [2], the inhibition at 10 µg/mL worked out at 26%.
Taken in the same sequence, the figures for `COc1cc(OC)c(NC(=S)Nc2cc(OC)c(NC(=O)c3ccco3)cc2OC)cc1Cl` [Example 276, Furan-2-carboxylic acid {4-[3-(5-chloro-2,4-dimethoxy-phenyl)-thioureido]-2,5-dimethoxy-phenyl}-amide] were more than 10 µg/mL, 4 µg/mL (≈ 8.13 µM), more than 10 µg/mL and 75%.
As to `COc1cc(OC)c(NC(=S)Nc2ccc(NC(=O)c3ccco3)c(C(=O)c3ccccc3)c2)cc1Cl` [Example 294, Furan-2-carboxylic acid {2-benzoyl-4-[3-(5-chloro-2,4-dimethoxy-phenyl)-thioureido]-phenyl}-amide], the IC50 in experiment [1] is more than 50 µg/mL; in experiment [2], more than 10 µg/mL; in experiment [3], more than 10 µg/mL. Further, the inhibition at 10 µg/mL in experiment [2] was 0%.
For the compound `COc1cc(OC)c(NC(=S)Nc2ccc(NC(=O)c3ccco3)c(OC)c2)cc1Cl` [Example 304, Furan-2-carboxylic acid {4-[3-(5-chloro-2,4-dimethoxy-phenyl)-thioureido]-2-methoxy-phenyl}-amide], the IC50 in experiment [1] was found to be 8 µg/mL (≈ 17.3 µM); in experiment [2], 11 µg/mL (≈ 23.8 µM); in experiment [3] it was 7 µg/mL (≈ 15.2 µM). The inhibition at 10 µg/mL in experiment [2] amounted to 44%.
For “Furan-2-carboxylic acid {4-[3-(5-chloro-2,4-dimethoxy-phenyl)-thioureido]-3-cyano-phenyl}-amide [Example 382]”, the “IC50 (ug/ml) HSV” value in experiment [1] is more than 10 µg/mL. In experiment [2], the “% inhibition 10 ug/ml VZV” value was 46% and the “IC50 (ug/ml) VZV” value was more than 10 µg/mL. Also, the “IC50 (ug/ml) HCMV” value in experiment [3] was more than 10 µg/mL.
As to `COc1cc(OC)c(NC(=S)Nc2ccc(NC(=O)c3ccco3)c(C#N)c2)cc1Cl` [Example 306, Furan-2-carboxylic acid {4-[3-(5-chloro-2,4-dimethoxy-phenyl)-thioureido]-2-cyano-phenyl}-amide], the results for the IC50 in experiment [1], in experiment [2] and in experiment [3] were more than 10 µg/mL, more than 10 µg/mL and 2.5 µg/mL (≈ 5.47 µM), respectively. In addition, the inhibition at 10 µg/mL in experiment [2] is 33%.
With `COc1cc(OC)c(NC(=S)Nc2ccc(NC(=O)c3ccco3)cc2C)cc1Cl` [Example 296, Furan-2-carboxylic acid {4-[3-(5-chloro-2,4-dimethoxy-phenyl)-thioureido]-3-methyl-phenyl}-amide], the IC50 in experiment [1] was 1.2 µg/mL (≈ 2.69 µM); in experiment [2] it was more than 10 µg/mL; in experiment [3], 8 µg/mL (≈ 17.9 µM). Moreover, the inhibition at 10 µg/mL in experiment [2] turned out to be 48%.
